Laboratory results taken from PubChem BioAssay (NCI).
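96-well plates; 48 h exposure; 5 concentrations. Endpoints by linear interpolation between flanking doses. Not reached: highest tested concentration assigned. GI50: concentration for 50% inhibition of growth. TGI marks complete inhibition of growth.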

Legend:
Assay in all cases: growth of human tumour cells (NCI), 48 h
OVCAR-8 ovarian = tested on: OVCAR-8 ovarian
MOLT-4 leukemia = tested on: MOLT-4 leukemia
UACC-62 melanoma = tested on: UACC-62 melanoma
NCI-H226 lung = tested on: NCI-H226 lung
SK-OV-3 ovarian = tested on: SK-OV-3 ovarian
LOX IMVI melanoma = tested on: LOX IMVI melanoma
SNB-75 CNS = tested on: SNB-75 CNS
HCT-15 colon = tested on: HCT-15 colon
HT29 colon = tested on: HT29 colon
NCI-H23 lung = tested on: NCI-H23 lung

SMILES | TGI (OVCAR-8 ovarian) | TGI (MOLT-4 leukemia) | TGI (UACC-62 melanoma) | TGI (NCI-H226 lung) | TGI (SK-OV-3 ovarian) | TGI (LOX IMVI melanoma) | TGI (SNB-75 CNS) | TGI (HCT-15 colon) | TGI (HT29 colon) | TGI (NCI-H23 lung) | GI50 (OVCAR-8 ovarian) | GI50 (MOLT-4 leukemia) | GI50 (UACC-62 melanoma) | GI50 (NCI-H226 lung) | GI50 (SK-OV-3 ovarian) | GI50 (LOX IMVI melanoma) | GI50 (SNB-75 CNS) | GI50 (HCT-15 colon) | GI50 (HT29 colon) | GI50 (NCI-H23 lung)
CSCCC(N)C(=O)NCCNc1ccc(NCCNC(=O)C(N)CCSC)c2c1C(=O)c1ccccc1C2=O (stereo not given) | 4.17 µM | 4.23 µM | 2.51 µM | 7.46 µM | 10.3 µM | 2.54 µM | 3.65 µM | 16.3 µM | 3.21 µM | 2.32 µM | – | – | – | – | – | – | – | – | – | –
Cc1cc(-c2nc3cc(F)ccc3s2)ccc1NC(=O)[C@@H](N)CCCCN | 11.2 µM | 7.24 µM | 23.4 µM | 18.1 µM | 25.7 µM | 3.62 µM | 4.99 µM | 21 µM | 9.61 µM | 4.93 µM | – | – | – | – | – | – | – | – | – | –
N#CC1(C#N)NC(c2cccs2)C(C#N)(C#N)NC1c1cccs1 (stereo not given) | > 100 µM | 60.2 µM | 57.9 µM | > 100 µM | > 100 µM | 37.3 µM | > 100 µM | > 100 µM | > 100 µM | > 100 µM | – | – | – | – | – | – | – | – | – | –
O=C1NC(Nc2ccccc2)=NC(C(F)(F)F)(C(F)(F)F)N1 | > 100 µM | > 100 µM | > 100 µM | > 100 µM | > 100 µM | > 100 µM | 87.6 µM | > 100 µM | > 100 µM | > 100 µM | – | – | – | – | – | – | – | – | – | –
O=S(=O)(c1ccc(NC2=NC(c3ccc(O)cc3)(c3ccccc3O)c3ccccc32)cc1)c1ccc(NC2=NC(c3ccc(O)cc3)(c3ccccc3O)c3ccccc32)cc1 (stereo not given) | > 40.7 µM | 60.1 µM | > 100 µM | 19.2 µM | > 73.3 µM | > 100 µM | > 27.5 µM | > 81 µM | > 52.7 µM | 8.01 µM | – | – | – | – | – | – | – | – | – | –
Cc1ccc2c(=O)cc(-c3ccc(Cl)s3)[nH]c2n1 | > 53.8 µM | > 100 µM | > 100 µM | 7.79 µM | 53.3 µM | > 100 µM | > 27.9 µM | > 100 µM | > 52.4 µM | > 22.9 µM | – | – | – | – | – | – | – | – | – | –
Cc1cc(F)ccc1S(=O)(=O)Nc1cc(-c2c(O)ccc3ccccc23)c(O)c2ccccc12 | > 100 µM | 14 µM | 4.54 µM | 14.5 µM | 11.6 µM | 10.8 µM | 11.7 µM | 11.4 µM | 21.1 µM | 13.3 µM | 3.65 µM | 3.33 µM | 1.85 µM | 2.85 µM | 2.37 µM | 2.91 µM | 2.32 µM | 2.68 µM | 4.09 µM | 2.77 µM
CCN(CC)N1C(=O)[N+](CC)(CC)N=C1[O-] | > 100 µM | > 100 µM | > 100 µM | > 100 µM | > 100 µM | > 100 µM | > 100 µM | > 100 µM | > 100 µM | > 100 µM | – | – | – | – | – | – | – | – | – | –
COc1cc2ccc(=O)oc2cc1O | 424 µM | 223 µM | 161 µM | 283 µM | 509 µM | > 625 µM | 175 µM | > 625 µM | > 625 µM | > 414 µM | – | – | – | – | – | – | – | – | – | –
CN(C)C(=O)OC1C(=O)N(C)c2ccc(Cl)cc2C2(c3ccccc3)N1C2(Cl)Cl (stereo not given) | > 100 µM | > 100 µM | > 100 µM | > 100 µM | > 100 µM | > 100 µM | > 100 µM | > 100 µM | > 100 µM | > 100 µM | – | – | – | – | – | – | – | – | – | –
COc1cccc(CCN2CCN(CCCc3ccccc3)CC2)c1 | > 100 µM | > 100 µM | > 100 µM | > 100 µM | > 100 µM | > 100 µM | > 100 µM | > 100 µM | > 100 µM | > 100 µM | – | – | – | – | – | – | – | – | – | –
NC(=O)c1cccc([N+](=O)[O-])c1 | > 100 µM | > 100 µM | > 100 µM | > 100 µM | > 100 µM | > 100 µM | > 100 µM | > 100 µM | > 100 µM | > 100 µM | – | – | – | – | – | – | – | – | – | –
CC(=O)Oc1cc2c(cc1OC(C)=O)OCC(c1ccc(C)cc1)C2 (stereo not given) | 68.6 µM | 54.6 µM | 21.3 µM | 62.2 µM | 112 µM | 37.7 µM | 32.3 µM | 40.7 µM | 73.6 µM | 32.1 µM | – | – | – | – | – | – | – | – | – | –
CN(C)c1nc(N)nc(CS)n1 | > 100 µM | > 100 µM | > 100 µM | > 100 µM | > 100 µM | > 100 µM | > 100 µM | > 100 µM | > 100 µM | > 100 µM | – | – | – | – | – | – | – | – | – | –
O=C1C(Cl)=C(OCCCl)C(=O)c2c(O)ccc(O)c21 | 47.6 µM | 0.619 µM | 14 µM | 30.7 µM | 32.1 µM | 12.4 µM | 26.3 µM | 7.01 µM | 12.5 µM | 19.8 µM | – | – | – | – | – | – | – | – | – | –
O=C1C[C@@H](C(=O)OCc2ccccc2)NC(=O)C[C@@H](C(=O)OCc2ccccc2)NC(=O)C[C@@H](C(=O)OCc2ccccc2)N1 | > 100 µM | 27.3 µM | > 100 µM | > 100 µM | 97.1 µM | > 100 µM | 13.7 µM | > 100 µM | > 100 µM | > 100 µM | – | – | – | – | – | – | – | – | – | –
C=C[C@@H](C)[C@H](NS(=O)(=O)c1ccc(C)cc1)C(=O)OCC | > 100 µM | > 100 µM | > 100 µM | > 100 µM | > 100 µM | 34.7 µM | 60.7 µM | > 100 µM | 59.9 µM | > 100 µM | – | – | – | – | – | – | – | – | – | –
Cc1ccc(OCC2OC(n3cnc4c(Cl)nc(N)nc43)CC2Oc2ccc(C)cc2)cc1 (stereo not given) | > 100 µM | > 100 µM | > 100 µM | > 100 µM | > 100 µM | > 100 µM | > 100 µM | > 100 µM | > 100 µM | 49.7 µM | – | – | – | – | – | – | – | – | – | –
Cc1ccc([S@](=O)c2occc2C=O)cc1 | 25.4 µM | 4.16 µM | 29.3 µM | 38 µM | 26.5 µM | 3.93 µM | 30.9 µM | 9.84 µM | 27.2 µM | 30.4 µM | – | – | – | – | – | – | – | – | – | –
CC(NC(=O)C(NC(=O)CNC(=O)OC(C)(C)C)C(C)C)C(=O)Oc1c(Cl)c(Cl)c(Cl)c(Cl)c1Cl (stereo not given) | 40.8 µM | > 100 µM | 34.8 µM | 52.6 µM | 51.5 µM | 32.5 µM | 78.7 µM | 33.2 µM | 68.5 µM | 29.5 µM | – | – | – | – | – | – | – | – | – | –
OCC(O)C(O)C(O)C(O)c1nc2ccc(Cl)cc2[nH]1 (stereo not given) | > 100 µM | > 100 µM | > 100 µM | > 100 µM | > 100 µM | > 100 µM | > 100 µM | > 100 µM | > 100 µM | > 100 µM | – | – | – | – | – | – | – | – | – | –
CC1C(=O)N(c2ccccc2)NC12CCCc1ccccc12 (stereo not given) | > 100 µM | > 100 µM | > 100 µM | > 100 µM | > 100 µM | > 100 µM | > 100 µM | > 100 µM | > 100 µM | > 100 µM | – | – | – | – | – | – | – | – | – | –
OC1(c2ccccc2)CCN(Cc2c[nH]c3ccccc23)CC1 | > 100 µM | > 100 µM | > 100 µM | > 100 µM | > 100 µM | > 100 µM | > 100 µM | > 100 µM | > 100 µM | > 100 µM | – | – | – | – | – | – | – | – | – | –
OCCO/N=C1\C(c2c(O)[nH]c3ccccc23)=Nc2ccccc21 | > 100 µM | > 100 µM | > 100 µM | > 100 µM | > 100 µM | > 100 µM | > 100 µM | > 100 µM | > 100 µM | > 100 µM | – | – | – | – | – | – | – | – | – | –
CO/N=C1\CC(NC(=O)CNC(=O)OC(C)(C)C)c2ccsc21 (stereo not given) | > 100 µM | > 100 µM | > 100 µM | > 100 µM | > 100 µM | > 100 µM | > 100 µM | > 100 µM | > 100 µM | > 100 µM | – | – | – | – | – | – | – | – | – | –
